Assay results: patent US20180000085A1, “USE OF PICOLINAMIDE COMPOUNDS WITH FUNGICIDAL ACTIVITY” (DOW AGROSCIENCES LLC, priority 2014, published 2018)

Experiments:
Assay type in all cases: in vivo
[1] = tested on: Phakopsora pachyrhizi; experiment: Asian soybean rust (PHAKPA) disease control; set-up: key: A: > 80; B: ≤ 80; C: Not Tested; D: No Activity Observed in the Reported Assay; details: 25 ppm; for PHAKPA disease control, 1DP: 1 Day Protectant; for PHAKPA disease control, 3DC: 3 Day Curative
[2] = tested on: Puccinia triticina; experiment: Wheat brown rust (PUCCRT) disease control on wheat seedlings; set-up: key to PUCCRT 3DC, HV activity at 100 ppm (% control rating) / PUCCRT disease control, 3DC / PUCCRT 1DP disease control rating, HV activity / PUCCRT 3DC disease control rating, HV activity / PUCCRT 3DC, LV activity at 125.1 g/H (% Control rating) / PUCCRT 1DP, LV activity at 125.1 g/H (% Control rating) / PUCCRT 3DC disease control rating, LV activity at 125.1 g/H / PUCCRT 1DP disease control rating, LV activity at 125.1 g/H / PUCCRT 3DC disease control rating, HV activity at 100 ppm / PUCCRT 1DP disease control rating, HV activity at 100 ppm / HV activity at 100 ppm PUCCRT 3DC (disease control rating) / LV activity at 125.1 g/H PUCCRT 1DP (disease control rating) / LV activity at 125.1 g/H PUCCRT 3DC (disease control rating): A: > 80; B: ≤ 80; C: Not Tested; D: No Activity Observed in the Reported Assay; details: for PUCCRT 1DP disease control rating, HV activity / PUCCRT 3DC disease control rating, HV activity: HV application at 100 ppm
[3] = tested on: Zymoseptoria tritici; experiment: Leaf blotch of wheat (SEPTTR) disease control on wheat seedlings; set-up: key to SEPTTR 1DP, HV activity at 100 ppm (% control rating) / SEPTTR 3DC, HV activity at 100 ppm (% control rating) / SEPTTR disease control, 1DP / SEPTTR disease control, 3DC / SEPTTR 1DP disease control rating, HV activity / SEPTTR 3DC disease control rating, HV activity / SEPTTR 3DC, LV activity at 125.1 g/H (% Control rating) / SEPTTR 1DP, LV activity at 125.1 g/H (% Control rating) / SEPTTR 1DP disease control rating, LV activity at 125.1 g/H / SEPTTR 3DC disease control rating, LV activity at 125.1 g/H / SEPTTR 3DC disease control rating, HV activity at 100 ppm / SEPTTR 1DP disease control rating, HV activity at 100 ppm / HV activity at 100 ppm SEPTTR 3DC (disease control rating) / HV activity at 100 ppm SEPTTR 1DP (disease control rating) / LV activity at 125.1 g/H SEPTTR 1DP (disease control rating) / LV activity at 125.1 g/H SEPTTR 3DC (disease control rating): A: > 80; B: ≤ 80; C: Not Tested; D: No Activity Observed in the Reported Assay; details: for SEPTTR 1DP disease control rating, HV activity / SEPTTR 3DC disease control rating, HV activity: HV application at 100 ppm
[4] = low volume application, 125.1 g/H, 1 day protectant
[5] = low volume application, 125.1 g/H, 3 day curative
[6] = 1 Day Protectant, wheat brown rust
[7] = 3 Day Curative, wheat brown rust
[8] = 1 Day Protectant, wheat leaf blotch
[9] = 3 Day Curative, wheat leaf blotch
[10] = low volume application, 125.1 g/H, 1 Day Protectant
[11] = low volume application, 125.1 g/H, 3 Day Curative
[12] = low volume application, 125.1 g/H, 1 Day Protectant, wheat brown rust
[13] = low volume application, 125.1 g/H, 3 Day Curative, wheat brown rust
[14] = low volume application, 125.1 g/H, 1 Day Protectant, wheat leaf blotch
[15] = low volume application, 125.1 g/H, 3 Day Curative, wheat leaf blotch

| SMILES | PHAKPA disease control, 1DP [1] | PHAKPA disease control, 3DC [1] | PUCCRT 1DP, LV activity at 125.1 g/H (% Control rating) [2, 10] | PUCCRT 3DC, LV activity at 125.1 g/H (% Control rating) [2, 11] | SEPTTR 1DP, LV activity at 125.1 g/H (% Control rating) [3, 10] | SEPTTR 3DC, LV activity at 125.1 g/H (% Control rating) [3, 11] | LV activity at 125.1 g/H PUCCRT 1DP (disease control rating) [2, 12] | LV activity at 125.1 g/H PUCCRT 3DC (disease control rating) [2, 13] | LV activity at 125.1 g/H SEPTTR 1DP (disease control rating) [3, 14] | LV activity at 125.1 g/H SEPTTR 3DC (disease control rating) [3, 15] | other results |
| --- | --- | --- | --- | --- | --- | --- | --- | --- | --- | --- | --- |
| COc1ccnc(C(=O)NC(C)C(=O)OC(C)(C)C(Oc2ccccc2)C(C)C)c1OCOC(C)=O (mixture of isomers) [Cmpd 904] | A (> 80) | B (≤ 80) | – | – | – | – | – | – | – | – | PUCCRT 1DP disease control rating, LV activity at 125.1 g/H [2, 4]: A (> 80); PUCCRT 3DC disease control rating, LV activity at 125.1 g/H [2, 5]: A (> 80); SEPTTR 1DP disease control rating, LV activity at 125.1 g/H [3, 4]: B (≤ 80); SEPTTR 3DC disease control rating, LV activity at 125.1 g/H [3, 5]: A (> 80) |
| COc1ccnc(C(=O)N[C@@H](C)C(=O)O[C@@H](C)[C@H](Oc2ccccc2)C(C)C)c1O [Cmpd 304] | D | B (≤ 80) | – | – | – | – | – | – | – | – | PUCCRT 1DP disease control rating, HV activity [2, 6]: A (> 80); PUCCRT 3DC disease control rating, HV activity [2, 7]: A (> 80); SEPTTR 1DP disease control rating, HV activity [3, 8]: A (> 80); SEPTTR 3DC disease control rating, HV activity [3, 9]: A (> 80) |
| C=CC(OCCC)C(Oc1ccccc1)C(C)OC(=O)C(C)NC(=O)c1nccc(OC)c1OCOC(C)=O (stereo not drawn) [Cmpd 455] | A (> 80) | B (≤ 80) | – | – | – | – | – | – | – | – | PUCCRT 1DP disease control rating, HV activity [2, 6]: A (> 80); PUCCRT 3DC disease control rating, HV activity [2, 7]: A (> 80); PUCCRT 1DP disease control rating, LV activity ([2]; Low volume application at 125.1 g/H, 1 Day Protectant, wheat brown rust): A (> 80); PUCCRT 3DC disease control rating, LV activity ([2]; Low volume application at 125.1 g/H, 3 Day Curative, wheat brown rust): A (> 80); SEPTTR 1DP disease control rating, HV activity [3, 8]: A (> 80); SEPTTR 3DC disease control rating, HV activity [3, 9]: A (> 80); SEPTTR 1DP disease control rating, LV activity ([3]; Low volume application at 125.1 g/H, 1 Day Protectant, wheat leaf blotch): A (> 80); SEPTTR 3DC disease control rating, LV activity ([3]; Low volume application at 125.1 g/H, 3 Day Curative, wheat leaf blotch): A (> 80) |
| CCCOC[C@@H](Oc1ccccc1)[C@H](C)OC(=O)[C@H](C)NC(=O)c1nccc(OC)c1OC(C)=O [Cmpd 474] | B (≤ 80) | B (≤ 80) | A (> 80) | A (> 80) | B (≤ 80) | A (> 80) | – | – | – | – | – |
| CCC(CC)[C@@H](Oc1ccccc1)[C@H](C)OC(=O)CNC(=O)c1nccc(OC)c1OC(C)=O [Cmpd 480] | B (≤ 80) | B (≤ 80) | A (> 80) | A (> 80) | B (≤ 80) | B (≤ 80) | – | – | – | – | – |
| COCC[C@H](Cc1ccc(F)cc1)[C@@H](Oc1ccccc1)[C@H](C)OC(=O)[C@H](C)NC(=O)c1nccc(OC)c1OCOC(C)=O [Cmpd 498] | A (> 80) | B (≤ 80) | A (> 80) | A (> 80) | A (> 80) | A (> 80) | – | – | – | – | – |
| COc1ccnc(C(=O)N[C@@H](C)C(=O)O[C@@H](C)[C@H](Oc2ccccc2)c2ccccc2)c1OC(C)=O [Cmpd 501] | B (≤ 80) | B (≤ 80) | A (> 80) | A (> 80) | A (> 80) | A (> 80) | – | – | – | – | – |
| CC[C@@H](CCC(C)C)[C@H](Oc1ccccc1)[C@H](C)OC(=O)[C@H](C)NC(=O)c1nccc(OC)c1OCOC(C)=O [Cmpd 502] | A (> 80) | B (≤ 80) | A (> 80) | A (> 80) | A (> 80) | A (> 80) | – | – | – | – | – |
| COc1ccnc(C(=O)N[C@@H](C)C(=O)O[C@@H](C)[C@@H](Cc2ccccc2)Oc2ccccc2)c1OCOC(C)=O [Cmpd 550] | B (≤ 80) | B (≤ 80) | A (> 80) | A (> 80) | A (> 80) | A (> 80) | – | – | – | – | – |
| CCC(CC)[C@@H](OCC1CC1)[C@H](C)OC(=O)[C@H](C)NC(=O)c1nccc(OC)c1OCOC(C)=O [Cmpd 553] | A (> 80) | A (> 80) | A (> 80) | A (> 80) | B (≤ 80) | A (> 80) | – | – | – | – | – |
| CCC(CC)[C@@H](OCC(C)C)[C@H](C)OC(=O)[C@H](C)NC(=O)c1nccc(OC)c1OCOC(C)=O [Cmpd 554] | A (> 80) | B (≤ 80) | A (> 80) | A (> 80) | B (≤ 80) | A (> 80) | – | – | – | – | – |
| CCOc1ccnc(C(=O)N[C@@H](C)C(=O)O[C@@H](C)[C@@H](CC(C)C)Oc2cccc(Cl)c2)c1OC(C)=O [Cmpd 1109] | – | – | – | – | – | – | B (≤ 80) | B (≤ 80) | D | B (≤ 80) | – |
| CCOc1ccnc(C(=O)N[C@@H](C)C(=O)O[C@@H](C)[C@@H](CC(C)C)Oc2ccc(Cl)c(OC)c2)c1OC(C)=O [Cmpd 1110] | – | – | – | – | – | – | D | D | D | D | – |
| COc1ccnc(C(=O)N[C@@H](C)C(=O)O[C@@H](C)[C@@H](CC(C)C)OCC(C)C)c1OC(C)=O [Cmpd 1111] | – | – | – | – | – | – | A (> 80) | A (> 80) | B (≤ 80) | A (> 80) | – |
| COc1ccnc(C(=O)N[C@@H](C)C(=O)O[C@@H](C)[C@@H](CC(C)C)OCC2CC2)c1OC(C)=O [Cmpd 1112] | – | – | – | – | – | – | B (≤ 80) | A (> 80) | D | D | – |
| COc1ccnc(C(=O)N[C@@H](C)C(=O)O[C@@H](C)[C@@H](CC(C)C)Oc2cccc(F)c2)c1OC(C)=O [Cmpd 1113] | – | – | – | – | – | – | A (> 80) | A (> 80) | A (> 80) | A (> 80) | – |
| COc1ccnc(C(=O)N[C@@H](C)C(=O)O[C@@H](C)[C@@H](CC(C)C)Oc2cc(F)ccc2F)c1OC(C)=O [Cmpd 1114] | – | – | – | – | – | – | A (> 80) | A (> 80) | A (> 80) | A (> 80) | – |
| COc1ccnc(C(=O)N[C@@H](C)C(=O)O[C@@H](C)[C@@H](CC(C)C)Oc2ccc(C)cc2Cl)c1OC(C)=O [Cmpd 1115] | – | – | – | – | – | – | A (> 80) | A (> 80) | B (≤ 80) | B (≤ 80) | – |
| COc1cc(O[C@H](CC(C)C)[C@H](C)OC(=O)[C@H](C)NC(=O)c2nccc(OC)c2OC(C)=O)ccc1Cl [Cmpd 1116] | – | – | – | – | – | – | A (> 80) | A (> 80) | A (> 80) | A (> 80) | – |
